ChEMBL document CHEMBL3885881, “DrugMatrix”

Organism: Rattus norvegicus
Test: DrugMatrix - Regimen: Daily Repeat
Format: toxicity, organism-based, Sprague-Dawley
Parameters: regimen Daily Repeat, gender Male, age 6-8 weeks
Details: in vivo, po, route oral GAVAGE, […]; for URIC ACID / ALANINE AMINOTRANSFERASE / ALKALINE PHOSPHATASE / ASPARTATE AMINOTRANSFERASE / BLOOD UREA NITROGEN / CARBON DIOXIDE / CHLORIDE / CHOLESTEROL / CREATINE PHOSPHOKINASE / CREATININE / GLUCOSE / LACTATE DEHYDROGENASE / LIPASE / PHOSPHORUS / POTASSIUM / SODIUM / TOTAL BILIRUBIN / TOTAL PROTEIN: tissue Plasma; for ABSOLUTE BASOPHIL / ABSOLUTE EOSINOPHIL / ABSOLUTE LYMPHOCYTE / ABSOLUTE MONOCYTE / ABSOLUTE SEGMENTED NEUTROPHIL / BASOPHIL / EOSINOPHIL / ERYTHROCYTE COUNT / HEMATOCRIT / HEMOGLOBIN / LEUKOCYTE COUNT / LYMPHOCYTE / MEAN CORPUSCULAR HEMOGLOBIN / MEAN CORPUSCULAR HEMOGLOBIN CONCENTRATION / MEAN CORPUSCULAR VOLUME / MONOCYTE / NEUTROPHIL / NUCLEATED RED BLOOD CELLS / PLATELET COUNT: tissue Blood
[1] = 10 mg/kg, 120 h, dose level Low, time 5 day
[2] = 1100 mg/kg, 72 h, dose level High, time 3 day
[3] = 1100 mg/kg, 120 h, dose level High, time 5 day

## CCOC(=O)C1=C(C)NC(C)=C(C(=O)OC)C1c1cccc([N+](=O)[O-])c1 (stereo unspecified) [NITRENDIPINE]
10 mg/kg, 72 h, dose level Low, time 3 day
  URIC ACID: 0.7 mg/dL
[1]
  ABSOLUTE BASOPHIL: 0 CELLS/uL
  ABSOLUTE EOSINOPHIL: 0 CELLS/uL
  ABSOLUTE LYMPHOCYTE: 10446 CELLS/uL
  ABSOLUTE MONOCYTE: 116 CELLS/uL
  ABSOLUTE SEGMENTED NEUTROPHIL: 1038 CELLS/uL
  BASOPHIL: 0%
  EOSINOPHIL: 0%
  ERYTHROCYTE COUNT: 5.06 x10E6/uL
  HEMATOCRIT: 32.77%
  HEMOGLOBIN: 12.73 G/DL
  LEUKOCYTE COUNT: 11.6 x10E3/uL
  LYMPHOCYTE: 90%
  MEAN CORPUSCULAR HEMOGLOBIN: 25.2 pg
  MEAN CORPUSCULAR HEMOGLOBIN CONCENTRATION: 38.87 G/DL
  MEAN CORPUSCULAR VOLUME: 64.8 fL
  MONOCYTE: 1%
  NEUTROPHIL: 9%
  NUCLEATED RED BLOOD CELLS: 0 /100WBC
  PLATELET COUNT: 1057 x10E3/uL
  ALANINE AMINOTRANSFERASE: 72 u/L
  ALKALINE PHOSPHATASE: 422.33 u/L
  ASPARTATE AMINOTRANSFERASE: 98 u/L
  BLOOD UREA NITROGEN: 15 mg/dL
  CARBON DIOXIDE: 32.33 mmol/L
  CHLORIDE: 101 MEQ/L
  CHOLESTEROL: 70.67 mg/dL
  CREATINE PHOSPHOKINASE: 376.67 u/L
  CREATININE: 0.17 mg/dL
  GLUCOSE: 143 mg/dL
  LACTATE DEHYDROGENASE: 166.67 u/L
  LIPASE: 9.67 u/L
  PHOSPHORUS: 10.6 mg/dL
  POTASSIUM: 5.57 MEQ/L
  SODIUM: 144.07 MEQ/L
  TOTAL BILIRUBIN: 0.23 mg/dL
  TOTAL PROTEIN: 6.03 G/DL
  URIC ACID: 0.53 mg/dL
[2]
  ABSOLUTE BASOPHIL: 0 CELLS/uL
  ABSOLUTE EOSINOPHIL: 21.67 CELLS/uL
  ABSOLUTE LYMPHOCYTE: 8591 CELLS/uL
  ABSOLUTE MONOCYTE: 68 CELLS/uL
  ABSOLUTE SEGMENTED NEUTROPHIL: 719.33 CELLS/uL
  BASOPHIL: 0%
  EOSINOPHIL: 0.33%
  ERYTHROCYTE COUNT: 5.96 x10E6/uL
  HEMATOCRIT: 36.87%
  HEMOGLOBIN: 14.27 G/DL
  LEUKOCYTE COUNT: 9.4 x10E3/uL
  LYMPHOCYTE: 91%
  MEAN CORPUSCULAR HEMOGLOBIN: 23.93 pg
  MEAN CORPUSCULAR VOLUME: 61.87 fL
  MONOCYTE: 0.67%
  NEUTROPHIL: 8%
  NUCLEATED RED BLOOD CELLS: 0 /100WBC
  PLATELET COUNT: 1329.67 x10E3/uL
  ALANINE AMINOTRANSFERASE: 96.67 u/L
  ALKALINE PHOSPHATASE: 346 u/L
  ASPARTATE AMINOTRANSFERASE: 88.67 u/L
  BLOOD UREA NITROGEN: 13.33 mg/dL
  CARBON DIOXIDE: 30 mmol/L
  CHLORIDE: 103.33 MEQ/L
  CHOLESTEROL: 57.33 mg/dL
  CREATINE PHOSPHOKINASE: 323.33 u/L
  CREATININE: 0.14 mg/dL
  GLUCOSE: 160 mg/dL
  LACTATE DEHYDROGENASE: 142.67 u/L
  LIPASE: 9.67 u/L
  PHOSPHORUS: 9.8 mg/dL
  POTASSIUM: 4.65 MEQ/L
  SODIUM: 145.2 MEQ/L
  TOTAL BILIRUBIN: 0.2 mg/dL
  TOTAL PROTEIN: 5.2 G/DL
  URIC ACID: 0.4 mg/dL
[3]
  ABSOLUTE BASOPHIL: 0 CELLS/uL
  ABSOLUTE EOSINOPHIL: 24.33 CELLS/uL
  ABSOLUTE LYMPHOCYTE: 5730.33 CELLS/uL
  ABSOLUTE MONOCYTE: 63.33 CELLS/uL
  ABSOLUTE SEGMENTED NEUTROPHIL: 515.33 CELLS/uL
  BASOPHIL: 0%
  EOSINOPHIL: 0.33%
  ERYTHROCYTE COUNT: 6.09 x10E6/uL
  HEMATOCRIT: 37.57%
  HEMOGLOBIN: 14.23 G/DL
  LEUKOCYTE COUNT: 6.33 x10E3/uL
  LYMPHOCYTE: 90.67%
  MEAN CORPUSCULAR HEMOGLOBIN: 23.4 pg
  MEAN CORPUSCULAR HEMOGLOBIN CONCENTRATION: 37.87 G/DL
  MEAN CORPUSCULAR VOLUME: 61.7 fL
  MONOCYTE: 1%
  NEUTROPHIL: 8%
  NUCLEATED RED BLOOD CELLS: 0 /100WBC
  PLATELET COUNT: 1353.67 x10E3/uL
  ALANINE AMINOTRANSFERASE: 65.67 u/L
  ALKALINE PHOSPHATASE: 214.33 u/L
  ASPARTATE AMINOTRANSFERASE: 85.67 u/L
  BLOOD UREA NITROGEN: 11.67 mg/dL
  CARBON DIOXIDE: 29 mmol/L
  CHLORIDE: 102.67 MEQ/L
  CHOLESTEROL: 58.33 mg/dL
  CREATINE PHOSPHOKINASE: 328.33 u/L
  CREATININE: 0.15 mg/dL
  GLUCOSE: 133.67 mg/dL
  LACTATE DEHYDROGENASE: 156.33 u/L
  LIPASE: 11.67 u/L
  PHOSPHORUS: 8.93 mg/dL
  POTASSIUM: 4.8 MEQ/L
  SODIUM: 147.07 MEQ/L
  TOTAL BILIRUBIN: 0.2 mg/dL
  TOTAL PROTEIN: 5.4 G/DL
  URIC ACID: 0.47 mg/dL
